In the NIST ThermoML archive (doi:10.1021/je900614f):
Numbers after ± are expanded uncertainties.

Details: Crystal; visual observation

## CCOc1ccc(NC(C)=O)cc1 [N-(4-ethoxyphenyl)ethanamide]
  Triple point temperature: 407 ± 1 K
